Literature values, collected in patent US10398653B2, “Solid preparations containing tofogliflozin and process of producing the same” (CHUGAI SEIYAKU KABUSHIKI KAISHA, priority 2013, dated 2019).

Biological target: T1, SGLT2 (Homo sapiens, UniProt P31639)
T1 sequence (P31639 1-672): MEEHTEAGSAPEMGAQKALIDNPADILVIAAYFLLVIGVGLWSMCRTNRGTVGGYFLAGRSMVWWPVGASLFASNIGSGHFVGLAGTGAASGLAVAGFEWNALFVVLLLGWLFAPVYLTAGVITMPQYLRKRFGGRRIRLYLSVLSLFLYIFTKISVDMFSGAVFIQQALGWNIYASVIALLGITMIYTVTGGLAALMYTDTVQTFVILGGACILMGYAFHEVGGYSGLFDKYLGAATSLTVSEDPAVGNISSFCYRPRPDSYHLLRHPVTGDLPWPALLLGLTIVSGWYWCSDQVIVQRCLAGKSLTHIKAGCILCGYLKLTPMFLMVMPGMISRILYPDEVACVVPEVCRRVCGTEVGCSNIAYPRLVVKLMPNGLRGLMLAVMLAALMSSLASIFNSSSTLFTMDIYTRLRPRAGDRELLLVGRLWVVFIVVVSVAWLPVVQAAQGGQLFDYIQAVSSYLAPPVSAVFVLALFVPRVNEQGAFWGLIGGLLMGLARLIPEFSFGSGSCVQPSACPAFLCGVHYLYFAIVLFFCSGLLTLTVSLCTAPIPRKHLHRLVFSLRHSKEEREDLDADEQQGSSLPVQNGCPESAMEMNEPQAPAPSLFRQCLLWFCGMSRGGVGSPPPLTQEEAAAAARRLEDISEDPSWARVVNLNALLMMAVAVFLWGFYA
Settings: as stated in Patent Document 1

Q: Which “Inhibitory activity against SGLT2” value does the source give for `CCc1ccc(Cc2ccc3c(c2)[C@]2(OC3)O[C@H](CO)[C@@H](O)[C@H](O)[C@H]2O)cc1` [tofogliflozin, 1,1-Anhydro-1-C-[5-(4-ethylphenyl)methyl-2-(hydroxymethyl)phenyl]-β-D-glucopyranose] here?
A: excellent inhibitory activity
